Experimental data published in US5013756A, “Catechol derivatives, a process of preparation thereof, and therapeutical compositions containing the same” (priority 1985, dated 1991).

Tests used:
guinea pig ileum = settings: histamine relative to LTC 4, molar basis; cited from earlier work
soybean lipoxygenase = target: T1, soybean lipoxygenase (Glycine max, UniProt P08170); assay: In vitro screening of compounds as potential inhibitors of soybean lipoxygenase (spectrophotometric assay, 15-HPETE at 236 nm); type: biochemical; settings: IC50 (concentration of 50% inhibition), pH 9.00, 10^-4 M arachidonic acid, 90 min, room temperature
T1 sequence (P08170 1-839): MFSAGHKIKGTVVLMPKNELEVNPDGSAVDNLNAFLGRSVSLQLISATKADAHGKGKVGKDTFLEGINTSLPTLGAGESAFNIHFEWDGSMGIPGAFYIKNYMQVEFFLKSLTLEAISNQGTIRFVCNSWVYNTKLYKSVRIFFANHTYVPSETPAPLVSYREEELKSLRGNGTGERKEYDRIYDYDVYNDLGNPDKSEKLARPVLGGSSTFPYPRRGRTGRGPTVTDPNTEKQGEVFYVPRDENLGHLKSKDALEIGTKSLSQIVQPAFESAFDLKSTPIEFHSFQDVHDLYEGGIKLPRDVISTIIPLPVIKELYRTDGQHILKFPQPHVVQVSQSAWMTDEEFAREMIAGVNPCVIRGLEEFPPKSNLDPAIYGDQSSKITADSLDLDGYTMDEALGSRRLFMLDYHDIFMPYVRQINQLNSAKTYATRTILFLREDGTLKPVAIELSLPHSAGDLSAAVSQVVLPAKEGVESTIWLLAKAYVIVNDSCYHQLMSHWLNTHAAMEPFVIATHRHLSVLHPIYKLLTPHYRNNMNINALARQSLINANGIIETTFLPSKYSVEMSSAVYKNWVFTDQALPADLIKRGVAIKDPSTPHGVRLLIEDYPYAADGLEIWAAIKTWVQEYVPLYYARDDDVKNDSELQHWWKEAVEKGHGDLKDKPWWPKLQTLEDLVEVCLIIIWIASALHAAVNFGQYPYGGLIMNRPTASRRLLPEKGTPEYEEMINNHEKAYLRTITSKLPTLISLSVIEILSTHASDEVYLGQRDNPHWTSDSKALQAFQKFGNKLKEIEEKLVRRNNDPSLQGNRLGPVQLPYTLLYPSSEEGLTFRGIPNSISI
Description: A spectrophotometric method has been developed to determine the enzyme activity according to Corey E.J. et al. (J. Amer. Chem. Soc, 104, 1750-1752; 1982). In a final volume of 1.8 ml was mixed 0.2 M of aerated Borax buffer pH =9.00 with 500 units of soybean lipoxygenase. When inhibitors were tested, they were added in 0.6 ml at final concentrations ranging from 10^-3 M to 10^-8 M followed by a preincubation of 10 minutes at room temperature. The reaction was initiated by 10^-4 M arachidonic acid. Following incubation at room temperature for 90 minutes, 15-HPETE was determined by absorbance measurements at 236 nm.
This method was validated with known inhibitors of lipoxygenase. For each test substance a control was included with boiled lipoxygenase in order to take into account any absorption of the compound at the wavelength used.

[1] = target: T2, 12-lipoxygenase (human leucocytes) (Homo sapiens, UniProt P18054); assay: Experiment No. 1: inhibition of 12-lipoxygenase in human leucocytes stimulated by ionophore (12-HETE); type: cell-based; settings: Experiment No. 1, 12-HETE, ionophore A23187 alone
T2 construct: human leucocytic lipoxygenase; endogenous in cells; host or cells: human (polynuclear) leucocytes
T2 sequence (P18054 1-663): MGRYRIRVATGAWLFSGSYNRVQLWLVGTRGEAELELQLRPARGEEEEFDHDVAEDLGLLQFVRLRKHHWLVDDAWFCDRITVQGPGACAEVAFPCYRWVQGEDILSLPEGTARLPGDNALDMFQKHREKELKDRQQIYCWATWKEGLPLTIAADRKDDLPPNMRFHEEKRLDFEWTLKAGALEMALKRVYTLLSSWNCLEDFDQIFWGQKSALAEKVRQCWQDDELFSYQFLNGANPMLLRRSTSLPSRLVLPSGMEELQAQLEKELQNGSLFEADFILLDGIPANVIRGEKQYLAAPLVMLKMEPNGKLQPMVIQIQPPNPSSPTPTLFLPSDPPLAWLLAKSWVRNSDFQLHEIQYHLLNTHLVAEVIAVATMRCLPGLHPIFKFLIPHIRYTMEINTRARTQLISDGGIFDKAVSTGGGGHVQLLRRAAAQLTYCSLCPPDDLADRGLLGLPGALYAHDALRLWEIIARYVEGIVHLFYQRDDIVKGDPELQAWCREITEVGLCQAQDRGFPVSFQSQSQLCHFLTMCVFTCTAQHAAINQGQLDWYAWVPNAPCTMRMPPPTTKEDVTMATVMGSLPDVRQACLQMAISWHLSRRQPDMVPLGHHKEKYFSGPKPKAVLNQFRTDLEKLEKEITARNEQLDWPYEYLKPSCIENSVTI
Description: (§1) (a) Inhibition on 5- and 12- lipoxygenases human polynuclear
(§2) Protocol for experiment No. 1:
(§3) 2. Stimulation with 1 μg ionophore (A23187)/ml for 4 minutes.
(§4) 3. Stopping of the incubation with 1 volume of methanol.
(§5) 4. Analysis by RP-HPLC, colomn C18, 5 μm.
(§6) 5. Measurement of the height of the peaks and comparison with the internal standard (PGB2).

[2] = target: T3, 5-lipoxygenase (human leucocytes) (Homo sapiens, UniProt P09917); assay: Experiment No. 1: inhibition of 5-lipoxygenase in human leucocytes stimulated by ionophore (5-HETE, LTB4); type: cell-based; settings: Experiment No. 1, 5-HETE, ionophore A23187 alone
T3 construct: human leucocytic lipoxygenase; endogenous in cells; host or cells: human (polynuclear) leucocytes
T3 sequence (P09917 1-674): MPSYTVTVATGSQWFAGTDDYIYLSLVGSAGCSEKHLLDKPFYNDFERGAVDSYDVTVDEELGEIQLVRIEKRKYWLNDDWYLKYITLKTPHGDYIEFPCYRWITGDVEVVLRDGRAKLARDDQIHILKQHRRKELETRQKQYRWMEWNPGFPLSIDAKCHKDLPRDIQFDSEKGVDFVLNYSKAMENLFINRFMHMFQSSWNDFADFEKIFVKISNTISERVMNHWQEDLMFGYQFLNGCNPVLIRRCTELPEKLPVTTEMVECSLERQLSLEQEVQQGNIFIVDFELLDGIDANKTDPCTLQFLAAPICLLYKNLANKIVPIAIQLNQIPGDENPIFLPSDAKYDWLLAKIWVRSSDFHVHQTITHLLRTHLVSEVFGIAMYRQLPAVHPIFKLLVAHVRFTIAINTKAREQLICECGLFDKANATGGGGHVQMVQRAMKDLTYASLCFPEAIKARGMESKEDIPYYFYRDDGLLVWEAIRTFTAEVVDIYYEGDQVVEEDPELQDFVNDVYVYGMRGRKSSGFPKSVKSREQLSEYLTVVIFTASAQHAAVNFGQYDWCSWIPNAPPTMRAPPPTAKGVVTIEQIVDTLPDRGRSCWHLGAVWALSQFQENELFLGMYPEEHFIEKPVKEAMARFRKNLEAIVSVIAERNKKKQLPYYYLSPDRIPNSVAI
Description: as §1, §2, §3, §4, §5, §6

[3] = target: T3, 5-lipoxygenase (human leucocytes); assay: Experiment No. 2: inhibition of 5-lipoxygenase in human leucocytes stimulated by ionophore and arachidonic acid (5-HETE, LTB4); type: cell-based
Description: (§7) (b) Inhibition on 5-, 12- and 15- lipoxygenases human polynuclear
(§8) Protocol for experiment No. 2:
(§9) 2. Stimulation with 10 μg of arachidonic acid and 1 μg of ionophore (A23187)/ml for 4 minutes.
(§10) 3. Stopping of the incubation with 1 volume of methanol and analysis by RP-HPLC.
(§11) 4. Measurement of the height of the peaks and comparison with the internal standard (PGB2).
(§12) It will be noted that in experiment No. 1, the leucocytes have been stimulated by the ionophore alone whereas in experiment No. 2, the cells have been stimulated with ionophore and arachidonic acid.

[4] = target: T2, 12-lipoxygenase (human leucocytes); assay: Experiment No. 2: inhibition of 12-lipoxygenase in human leucocytes stimulated by ionophore and arachidonic acid (12-HETE); type: cell-based; settings: Experiment No. 2, 12-HETE, ionophore A23187 and arachidonic acid
Description: as §7, §8, §9, §10, §11, §12

HHT (human leucocytes) = assay: Experiment No. 2: HHT formation in human leucocytes stimulated by ionophore and arachidonic acid; type: cell-based; settings: Leucocyte, ionophore A23187 and arachidonic acid
Description: as §7, §8, §9, §10, §11

[5] = target: T4, 15-lipoxygenase (human leucocytes) (Homo sapiens, UniProt P16050); assay: Experiment No. 2: inhibition of 15-lipoxygenase in human leucocytes stimulated by ionophore and arachidonic acid (15-HETE); type: cell-based; settings: Experiment No. 2, 15-HETE, ionophore A23187 and arachidonic acid
T4 construct: endogenous in cells; host or cells: human (polynuclear) leucocytes
T4 sequence (P16050 1-662): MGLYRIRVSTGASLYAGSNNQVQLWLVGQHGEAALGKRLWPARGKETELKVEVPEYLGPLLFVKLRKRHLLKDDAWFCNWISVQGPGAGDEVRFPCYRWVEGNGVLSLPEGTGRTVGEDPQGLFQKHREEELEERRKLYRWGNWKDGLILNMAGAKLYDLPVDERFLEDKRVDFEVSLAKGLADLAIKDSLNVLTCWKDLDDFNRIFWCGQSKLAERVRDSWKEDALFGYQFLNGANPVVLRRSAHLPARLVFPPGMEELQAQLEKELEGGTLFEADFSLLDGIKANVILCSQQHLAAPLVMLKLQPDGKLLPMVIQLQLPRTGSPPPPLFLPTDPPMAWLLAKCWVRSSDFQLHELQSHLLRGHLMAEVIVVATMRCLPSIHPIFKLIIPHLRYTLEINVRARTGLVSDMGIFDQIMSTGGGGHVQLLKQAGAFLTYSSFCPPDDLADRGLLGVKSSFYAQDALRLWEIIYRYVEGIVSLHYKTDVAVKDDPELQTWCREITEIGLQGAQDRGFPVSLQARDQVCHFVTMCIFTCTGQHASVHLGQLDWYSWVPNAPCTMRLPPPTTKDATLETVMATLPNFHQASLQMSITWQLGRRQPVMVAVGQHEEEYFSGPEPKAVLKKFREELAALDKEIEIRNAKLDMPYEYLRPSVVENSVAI
Description: as §7, §8, §9, §10, §11, §12

xanthine oxidase = xanthine oxidase (Bos taurus, UniProt P80457); assay: In vitro screening of compounds as potential inhibitors of xanthine oxidase; type: biochemical; settings: xanthine oxidase 0.01 units/ml, xanthine 5.10^-5 M, pH 7.4
Sequence of xanthine oxidase (P80457 whole entry): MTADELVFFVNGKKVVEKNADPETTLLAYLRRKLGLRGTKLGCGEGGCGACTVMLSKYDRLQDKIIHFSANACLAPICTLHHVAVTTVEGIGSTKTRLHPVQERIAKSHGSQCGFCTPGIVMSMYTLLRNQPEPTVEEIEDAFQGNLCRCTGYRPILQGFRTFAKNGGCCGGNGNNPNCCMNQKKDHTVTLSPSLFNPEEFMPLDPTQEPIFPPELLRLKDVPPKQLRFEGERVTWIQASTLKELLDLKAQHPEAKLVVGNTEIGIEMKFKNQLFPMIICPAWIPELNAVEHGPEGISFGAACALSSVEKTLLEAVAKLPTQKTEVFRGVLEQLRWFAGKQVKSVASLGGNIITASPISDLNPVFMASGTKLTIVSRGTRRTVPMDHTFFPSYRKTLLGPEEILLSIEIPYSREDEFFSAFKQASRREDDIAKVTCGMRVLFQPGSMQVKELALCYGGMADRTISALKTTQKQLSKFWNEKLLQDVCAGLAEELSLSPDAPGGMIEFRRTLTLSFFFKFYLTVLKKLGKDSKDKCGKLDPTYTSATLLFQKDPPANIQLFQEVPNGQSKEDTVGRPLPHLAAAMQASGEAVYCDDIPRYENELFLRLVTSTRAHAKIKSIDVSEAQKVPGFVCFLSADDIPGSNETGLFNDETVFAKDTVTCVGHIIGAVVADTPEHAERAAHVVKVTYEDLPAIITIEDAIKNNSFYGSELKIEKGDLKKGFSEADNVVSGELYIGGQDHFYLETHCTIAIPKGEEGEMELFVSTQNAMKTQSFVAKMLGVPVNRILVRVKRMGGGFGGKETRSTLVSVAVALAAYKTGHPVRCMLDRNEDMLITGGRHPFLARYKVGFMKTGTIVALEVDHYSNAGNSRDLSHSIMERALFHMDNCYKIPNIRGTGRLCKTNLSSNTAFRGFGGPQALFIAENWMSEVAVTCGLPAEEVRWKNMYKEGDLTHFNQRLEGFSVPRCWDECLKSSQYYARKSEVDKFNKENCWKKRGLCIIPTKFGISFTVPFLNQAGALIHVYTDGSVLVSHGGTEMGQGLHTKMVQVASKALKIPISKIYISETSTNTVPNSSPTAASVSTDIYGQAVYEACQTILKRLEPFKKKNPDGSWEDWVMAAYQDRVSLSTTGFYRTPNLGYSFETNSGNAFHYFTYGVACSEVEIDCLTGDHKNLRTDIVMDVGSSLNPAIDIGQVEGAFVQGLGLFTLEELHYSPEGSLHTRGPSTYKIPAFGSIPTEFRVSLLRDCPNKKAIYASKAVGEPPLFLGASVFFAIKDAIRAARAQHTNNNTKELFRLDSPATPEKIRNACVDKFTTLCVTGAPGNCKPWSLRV
Description: A unit of activity was defined as a change of 0.001 units/minute.

[6] = target: T5, cyclooxygenase (human platelets microsomes) (Homo sapiens, UniProt P23219); assay: Cycloxygenase inhibition in human platelets microsomes; type: biochemical; settings: cyclooxygenase (PGE2/TxB2), pH 7.9, 37° C.
T5 construct: human platelets microsomes; from tissue; host or cells: human platelet microsomes (microsomal powder)
T5 sequence (P23219 24-599): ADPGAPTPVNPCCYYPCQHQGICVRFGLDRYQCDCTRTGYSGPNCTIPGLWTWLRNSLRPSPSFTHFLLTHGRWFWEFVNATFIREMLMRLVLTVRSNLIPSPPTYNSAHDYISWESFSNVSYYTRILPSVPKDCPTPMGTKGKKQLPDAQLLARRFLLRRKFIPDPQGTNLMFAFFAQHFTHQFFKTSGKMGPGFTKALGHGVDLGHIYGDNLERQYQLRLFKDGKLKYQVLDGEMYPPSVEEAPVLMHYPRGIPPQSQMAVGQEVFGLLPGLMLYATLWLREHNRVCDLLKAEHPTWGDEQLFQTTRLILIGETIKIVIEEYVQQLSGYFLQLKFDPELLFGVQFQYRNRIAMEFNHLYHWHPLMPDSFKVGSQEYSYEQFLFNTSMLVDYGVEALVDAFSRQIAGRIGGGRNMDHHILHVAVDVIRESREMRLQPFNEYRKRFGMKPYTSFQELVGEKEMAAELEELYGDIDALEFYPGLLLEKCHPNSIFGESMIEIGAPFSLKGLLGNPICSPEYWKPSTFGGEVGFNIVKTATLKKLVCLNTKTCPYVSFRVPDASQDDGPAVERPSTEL
Description: The enzymatic assay was carried out in silanized glassware according to the procedure of P. Ho, P. Walters and H, Sullivan (Prostaglandins 12, 951 1976). The reaction mixture containing 50 mM Tris HCl buffer, pH 7.9, 5mM 2-Tryptophan, […] methemoglobin, 0.2 mg of microsomal powder, and the test compound in a total volume of 0.2 ml was incubated at 37° C. for 5 minutes before the addition of 10 μl of 20 μM^14 C arachidonic acid (0.08 μCI). After 5 minute incubation, the reaction was terminated by the addition of 10 μl of 1M citric acid.
The mixture was extracted four times with 0.5 ml of anhydrous diethyl ether and dried with sodium sulphate. The residue was resuspended in approximately 40 μl of ether and submitted to chromatography on silica gel plates. The elution system consisted of diethyl ether/methanol/acetic acid (90:1:2). The RF values were measured relative to arachidonic acid. Thin layer chromatography plates (TLC) were exposed on LKB ultrafilm for about 24 hours. Partial identification of the spots were carried out by running standards (PGA2, PGB2, PGE2, PGF2c, PXB2, arachidonic acid) in the same solvent system. Quantitative results were obtained by scanning the developed film with a transmission densitometer (EC Apparatus 910) interfaced with a Hewlett Packard 3390A integrator.
The activity of the substances of the cyclooxygenase is quantified by the 2 spots corresponding to PGE2 and TxB2 (ratio PGE2 /TxB2).

[7] = Experiment No. 2, 5-HETE, ionophore A23187 and arachidonic acid, read-out: IC50 5-HETE
[8] = Experiment No. 2, LTB4, ionophore A23187 and arachidonic acid, read-out: IC50 LTB4 (converted)

Question: With `NCCc1c[nH]cn1` [histamine] as the compound, how does the “times less active than LTC 4 on a molar basis” value (guinea pig ileum) read?
Answer: The value was 200 times.

Question: With `CCCCCCC(C)Sc1ccc(O)c(O)c1` (stereo not drawn) [drawing 9] as the compound, how does the IC50 (soybean lipoxygenase) read?
Answer: Its IC50 is 27.6 µM.

Question: With `CCC(C)CSc1ccc(O)c(O)c1` (stereo not drawn) [drawing 30] as the compound, how does the IC50 [1] read?
Answer: The IC50 was 1 µM.

Question: And the IC50 [2]?
Answer: The IC50 was 1 µM.

Question: With `CCCCCCC(C)Sc1ccc(O)c(O)c1` (stereo not drawn) [drawing 34] as the compound, how does the IC50 [3, 7] read?
Answer: Its IC50 is 1 µM.

Question: What about the IC50 [3, 8] of the same compound?
Answer: Its IC50 is 1 µM.

Question: What about the IC50 [4] of the same compound?
Answer: Its IC50 is 2 µM.

Question: And the IC50 (HHT (human leucocytes))?
Answer: Its IC50 is 2 µM.

Question: What about the IC50 [5] of the same compound?
Answer: Its IC50 is 10 µM.

Question: With `CCCCCCC(C)Sc1ccc(O)c(O)c1` (stereo not drawn) [drawing 29] as the compound, how does the IC50 (xanthine oxidase) read?
Answer: The IC50 was 557 µM.

Question: For `Oc1ccc(S)cc1O` [drawing 27], which IC50 (xanthine oxidase) is on record?
Answer: The IC50 was 237 µM.

Question: Which IC50 (soybean lipoxygenase) does the source give for `CC1CCC(C(C)C)C(Sc2ccc(O)c(O)c2)C1` (stereo not drawn) [drawing 8] here?
Answer: The IC50 was 24.1 µM.

Question: With `CC1CCC(C(C)C)C(Sc2ccc(O)c(O)c2)C1` (stereo not drawn) [drawing 22] as the compound, how does the IC50 [6] read?
Answer: The IC50 was 16.8 µM.

Question: For `CCCCCCC(C)Sc1ccc(O)c(O)c1` (stereo not drawn) [drawing 10], which IC50 (soybean lipoxygenase) is on record?
Answer: The IC50 was 24.5 µM.

Question: Which IC50 [3, 7] does the source give for `Oc1ccc(S)cc1O` [drawing 32] here?
Answer: Its IC50 is 1 µM.

Question: What about the IC50 [3, 8] of the same compound?
Answer: The IC50 was 3 µM.

Question: And the IC50 (HHT (human leucocytes))?
Answer: Its IC50 is 20 µM.

Question: What about the IC50 [5] of the same compound?
Answer: Its IC50 is 50 µM.
